Consider two molecules from ChEMBL document CHEMBL1145667, “Carboxyatractyloside: A Compound from Xanthium strumarium and Atractylis gummifera with Plant Growth Inhibiting Properties. The Probable "Inhibitor A"” (1983).

Experiment [1] deals with Triticum aestivum. Description: Growth inhibition of etiolated wheat coleoptiles at 1000 uM after 24 hrs at 22 degC in dark relative to control. It counts as functional. The following applies: read-out: GI.
Experiment [2] has as its system Triticum aestivum. Description: Growth inhibition of etiolated wheat coleoptiles at 100 uM after 24 hrs at 22 degC in dark relative to control. Type of experiment: functional. The following applies: read-out: GI.
For experiment [3], the system named is Triticum aestivum. Description: Growth inhibition of etiolated wheat coleoptiles at 10 uM after 24 hrs at 22 degC in dark relative to control. It counts as functional. The note with it: read-out: GI.
For experiment [4], the system named is Zea mays. The experiment is described as follows: Growth inhibition of green house corn seedling assessed as necrotic lesions at 10000 uM after 72 hrs. Type of experiment: functional, organism-based.
In experiment [5] the test system is Zea mays. Description: Growth inhibition of green house corn seedling assessed as chlorosis at 1000 uM after 72 hrs. Type of experiment: functional, organism-based.
The subject of experiment [6] is Zea mays. The experiment is described as follows: Growth inhibition of green house corn seedling assessed as chlorosis at 100 uM after 72 hrs. Type of experiment: functional, organism-based.
The subject of experiment [7] is Zea mays. The experiment is described as follows: Growth inhibition of green house corn seedling assessed as stunting at 1000 uM after 72 hrs. It counts as functional, organism-based.
Experiment [8] relates to Zea mays. Description: Growth inhibition of green house corn seedling assessed as stunting at 100 uM after 72 hrs. Type of experiment: functional, organism-based.
Experiment [9] relates to Zea mays. The experiment is described as follows: Growth inhibition of green house corn seedling assessed as necrotic lesions at 10000 uM after 1 week relative to control. Type of experiment: functional. The note with it: 168 h, read-out: GI.
The test system of experiment [10] is Zea mays. Description: Growth inhibition of green house corn seedling assessed as stunting at 10000 uM after 1 week relative to control. It counts as functional. The following applies: 168 h, read-out: GI.
Experiment [11] concerns Zea mays. The experiment is described as follows: Growth inhibition of green house corn seedling assessed as whorls and chlorosis of the leaf margins at 1000 uM relative to control. The following applies: read-out: GI. It counts as functional.
For experiment [12], the system named is Zea mays. The experiment is described as follows: Growth inhibition of green house corn seedling at 10000 uM after 2 weeks relative to control. It counts as functional. The note with it: 336 h, read-out: GI.
Experiment [13] has as its system Zea mays. Description: Growth inhibition of green house corn seedling at 1000 uM after 2 weeks relative to control. Type of experiment: functional. The following applies: 336 h, read-out: GI.
For experiment [14], the system named is Nicotiana tabacum. The experiment is described as follows: Growth inhibition of green house tobacco seedlings assessed as cupping of leaves at 10000 uM within 24 hrs. Type of experiment: functional, organism-based.
In experiment [15] the test system is Nicotiana tabacum. The experiment is described as follows: Growth inhibition of green house tobacco seedlings assessed as cupping of leaves at 1000 uM within 24 hrs. It counts as functional, organism-based.
The subject of experiment [16] is Nicotiana tabacum. Description: Growth inhibition of green house tobacco seedlings assessed as cupping of leaves at 100 uM within 24 hrs. It counts as functional, organism-based.
Experiment [17] has as its system Nicotiana tabacum. Description: Growth inhibition of green house tobacco seedlings assessed as cupping of leaves resembling tobacco at 10000 uM at 2 to 7 degC after 24 hrs. It counts as functional, organism-based.
For experiment [18], the system named is Nicotiana tabacum. Description: Growth inhibition of green house tobacco seedlings assessed as cupping of leaves resembling tobacco at 1000 uM at 2 to 7 degC after 24 hrs. It counts as functional, organism-based.
Experiment [19] has as its system Nicotiana tabacum. The experiment is described as follows: Growth inhibition of green house tobacco seedlings assessed as cupping of leaves resembling tobacco at 100 uM at 2 to 7 degC after 24 hrs. Type of experiment: functional, organism-based.
Experiment [20] deals with Nicotiana tabacum. Description: Growth inhibition of green house tobacco seedlings assessed as cupping of the leaves at 10000 uM at 18.5 degC after 24 hrs. It counts as functional, organism-based.
The subject of experiment [21] is Nicotiana tabacum. The experiment is described as follows: Growth inhibition of green house tobacco seedlings assessed as cupping of the leaves at 1000 uM at 18.5 degC after 24 hrs. It counts as functional, organism-based.
Experiment [22] concerns Nicotiana tabacum. Description: Growth inhibition of green house tobacco seedlings assessed as cupping of the leaves at 100 uM at 18.5 degC after 24 hrs. It counts as functional, organism-based.
Experiment [23] deals with Nicotiana tabacum. Description: Growth inhibition of green house tobacco seedlings assessed as cupping of the leaves at 10000 uM after 72 hrs at 18.5 degC. Type of experiment: functional, organism-based.
In experiment [24] the test system is Nicotiana tabacum. The experiment is described as follows: Growth inhibition of green house tobacco seedlings assessed as cupping of the leaves at 1000 uM after 72 hrs at 18.5 degC. Type of experiment: functional, organism-based.
Experiment [25] relates to Nicotiana tabacum. The experiment is described as follows: Growth inhibition of green house tobacco seedlings assessed as cupping of the leaves at 100 uM after 72 hrs at 18.5 degC. It counts as functional, organism-based.
The subject of experiment [26] is Triticum aestivum. The experiment is described as follows: Growth inhibition of etiolated wheat coleoptiles at 0.00 to 0.10 retention factor by paper chromatograms relative to control. It counts as functional. Also on record: scale not given: the % may be the effect or the level left.
In experiment [27] the test system is Triticum aestivum. Description: Growth inhibition of etiolated wheat coleoptiles at 0.10 to 0.20 retention factor by paper chromatograms relative to control. It counts as functional. The arrangement: scale not given: the % may be the effect or the level left.
For experiment [28], the system named is Triticum aestivum. The experiment is described as follows: Growth inhibition of etiolated wheat coleoptiles at 0.20 to 0.30 retention factor by paper chromatograms relative to control. Type of experiment: functional. The arrangement: scale not given: the % may be the effect or the level left.
The test system of experiment [29] is Triticum aestivum. The experiment is described as follows: Growth inhibition of etiolated wheat coleoptiles at 0.60 to 0.90 retention factor by paper chromatograms relative to control. It counts as functional.

Active and inactive are the calls of the source. The rule behind the calls is not given here.

For `C=C1[C@H]2CC[C@H]3[C@]4(C)C[C@H](O[C@@H]5O[C@H](CO)[C@@H](OS(=O)(=O)O)[C@H](OS(=O)(=O)O)[C@H]5OC(=O)CC(C)C)CC(C(=O)[O-])(C(=O)[O-])[C@H]4CC[C@]3(C2)[C@H]1O.[K+].[K+]` [POTASSIUM CARBOXYATRACTYLOSIDE], the inhibition of growth at 1000 µM worked out at 100% in the experiment with Triticum aestivum [1], 25% in the experiment with Zea mays [11] and 14% in the experiment on Zea mays [13]. Moreover, the inhibition of growth at 100 µM in the experiment on Triticum aestivum [2] was determined as 91%. The inhibition of growth at 10 µM in the experiment on Triticum aestivum [3] came out at 48%. In addition, the result with Zea mays [4], with Zea mays [5], in the experiment on Zea mays [6], in the experiment on Zea mays [7], with Zea mays [8] and with Nicotiana tabacum [14] was Active. The outcome with Nicotiana tabacum [15], in the experiment on Nicotiana tabacum [16], in the experiment with Nicotiana tabacum [17], in the experiment with Nicotiana tabacum [18], with Nicotiana tabacum [19] and with Nicotiana tabacum [20] was Active. For the same molecule, the result with Nicotiana tabacum [21], with Nicotiana tabacum [22], in the experiment on Nicotiana tabacum [23], in the experiment with Nicotiana tabacum [24] and in the experiment with Nicotiana tabacum [25] was Active. Besides, the figures for the inhibition of growth at 10000 µM with Zea mays [9], with Zea mays [10] and in the experiment on Zea mays [12] were 50%, 50% and 43%, respectively. Moreover, the Activity in the experiment on Triticum aestivum [26] is 88.4%; in the experiment with Triticum aestivum [27], 76.7%; with Triticum aestivum [28] it was 86.4%.

`CC1=CC(=O)CC(C)(C)C1(O)/C=C/C(C)=C\C(=O)O` (racemic) [ABSCISIC ACID]: the inhibition of growth at 1000 µM in the experiment with Triticum aestivum [1] amounted to 100%. The inhibition of growth at 100 µM in the experiment on Triticum aestivum [2] came out at 90%. Moreover, in the experiment with Triticum aestivum [3], the inhibition of growth at 10 µM is 69%. In the experiment with Triticum aestivum [29], the “growth inhibition (GI)” value came out at 100%.
